Here are results for twelve molecules from ChEMBL document CHEMBL4393687, “Multi-targeted ChEI-copper chelating molecules as neuroprotective agents” (Eur J Med Chem, 2019).

Active and inactive are the calls of the source. No cut-off for these calls is given here.

A short description of data set [1]: Antioxidant activity assessed as DPPH free radical scavenging activity at 10 uM after 30 mins incubation in dark by UV-Visible spectrophotometric analysis relative to control. In kind it is functional. On the technique in general: The DPPH test is a chemical assay of radical scavenging.
Data set [2] can be described thus: Cytotoxicity against mouse HT22 cells assessed as cell viability at 30 uM after 24 hrs by MTT assay relative to control. To be noted: read-out: Activity. It counts as cell-based, HT-22. Background: Formazan colour is commonly taken as a measure of viable cells.
Data set [3] can be described thus: Cytotoxicity against mouse HT22 cells assessed as cell viability at 100 uM after 24 hrs by MTT assay relative to control. In kind it is cell-based, HT-22. Conditions: read-out: Activity.
Data set [4] concerns the target Acetylcholinesterase (Electrophorus electricus) (UniProt O42275). Briefly: Inhibition of electric eel AChE at 50 nM using acetylthiocholine iodide as substrate preincubated for 60 mins followed by substrate addition measured for 5 mins by Ellman's method. On the technique in general: Ellman's reagent forms a yellow product with free thiols.
The target of data set [5] is Cholinesterase (Equus caballus) (UniProt P81908). Nature of the data set: Inhibition of equine serum BChE at 50 nM using acetylthiocholine iodide as substrate preincubated for 60 mins followed by substrate addition measured for 5 mins by Ellman's method.
A short description of data set [6]: Antioxidant activity assessed as DPPH free radical scavenging activity after 30 mins incubation in dark by UV-Visible spectrophotometric analysis. It counts as functional.
Data set [7] is described as follows: Metal chelating activity assessed as compound-Cu2+ complex formation by measuring shift in maximum absorption at 10 uM after 30 mins by UV-vis spectrophotometric analysis.
Data set [8] is described as follows: Metal chelating activity assessed as compound-Cu2+ complex formation at 1:1 ratio of test compound to CuCl2 incubated for 30 mins by UV-vis spectrophotometric analysis.
Data set [9] can be described thus: Metal chelating activity assessed as compound-Cu2+ complex formation at 1:2 ratio of test compound to CuCl2 incubated for 30 mins by UV-vis spectrophotometric analysis.
The subject of data set [10] is HT-22. Nature of the data set: Neuroprotective activity against glutamate-induced neuronal damage in mouse HT22 cells at 3 to 30 uM pretreated for 30 mins followed by glutamate challenge measured after 24 hrs by MTT assay. In kind it is functional, cell-based.

Sequence of Acetylcholinesterase (Electrophorus electricus) (O42275 24-633 limits assumed): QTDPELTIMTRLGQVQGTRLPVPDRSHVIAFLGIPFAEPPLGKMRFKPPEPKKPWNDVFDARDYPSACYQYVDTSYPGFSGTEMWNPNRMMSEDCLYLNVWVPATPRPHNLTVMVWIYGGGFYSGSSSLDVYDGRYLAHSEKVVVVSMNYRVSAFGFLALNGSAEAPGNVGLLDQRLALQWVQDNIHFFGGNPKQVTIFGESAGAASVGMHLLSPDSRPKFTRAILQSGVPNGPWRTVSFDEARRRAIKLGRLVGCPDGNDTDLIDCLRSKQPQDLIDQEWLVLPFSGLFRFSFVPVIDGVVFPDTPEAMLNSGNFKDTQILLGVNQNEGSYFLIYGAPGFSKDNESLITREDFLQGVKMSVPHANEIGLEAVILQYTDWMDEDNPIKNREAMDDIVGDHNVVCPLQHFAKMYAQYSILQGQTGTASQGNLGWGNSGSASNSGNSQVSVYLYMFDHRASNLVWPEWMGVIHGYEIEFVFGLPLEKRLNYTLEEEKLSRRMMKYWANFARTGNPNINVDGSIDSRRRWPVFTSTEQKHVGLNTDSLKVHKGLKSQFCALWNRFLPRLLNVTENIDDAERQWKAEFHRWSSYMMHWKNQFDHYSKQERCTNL
Sequence of Cholinesterase (Equus caballus) (P81908 whole entry): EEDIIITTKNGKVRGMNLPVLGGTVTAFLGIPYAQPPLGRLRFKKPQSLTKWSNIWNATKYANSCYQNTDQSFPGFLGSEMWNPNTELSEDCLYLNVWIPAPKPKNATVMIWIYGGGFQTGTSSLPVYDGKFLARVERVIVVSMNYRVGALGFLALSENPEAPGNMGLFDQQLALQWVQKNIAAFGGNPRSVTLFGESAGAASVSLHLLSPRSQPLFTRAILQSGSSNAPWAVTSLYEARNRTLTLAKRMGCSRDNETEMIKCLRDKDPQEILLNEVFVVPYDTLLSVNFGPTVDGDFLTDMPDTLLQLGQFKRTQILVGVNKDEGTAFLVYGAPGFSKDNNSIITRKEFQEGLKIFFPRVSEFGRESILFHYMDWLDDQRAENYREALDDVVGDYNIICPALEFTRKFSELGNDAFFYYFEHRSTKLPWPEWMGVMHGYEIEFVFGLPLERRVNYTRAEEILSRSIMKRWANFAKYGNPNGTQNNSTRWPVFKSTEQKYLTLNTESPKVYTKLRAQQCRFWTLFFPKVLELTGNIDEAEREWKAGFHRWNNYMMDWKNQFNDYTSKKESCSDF

Take `CCN(C)C(=O)Nc1cccc(NC(=O)c2cccnc2O)c1`: the Activity in [1] turned out to be 3.62%. Further, in [2], the viability at 24 h, 30 µM came to 97.2%. In addition, the viability at 24 h, 100 µM in data set [3] was found to be 96.1%.

A word on the inhibition: it is the drop in the measured response relative to a control, in per cent. For `CCN(C)C(=O)Oc1cccc(CCNC(=O)c2cccnc2O)c1`, the inhibition in data set [4] was 5.43%; in [5] it was 53.7%. In [1], the Activity came to 2.21%. In addition, the viability at 24 h, 30 µM in [2] amounted to 106%. For the same molecule, the viability at 24 h, 100 µM in [3] is 99.4%.

Consider `CCN(C)C(=O)Oc1cccc(CNCc2ccccc2O)c1`, for which the inhibition in [4] turned out to be 4.06%; in data set [5], 30.5%. The Activity in data set [1] is 17.7%. Further, the viability at 24 h, 30 µM in data set [2] is 96.6%. For the same molecule, the viability at 24 h, 100 µM in [3] stood at 90.3%.

A word on the IC50: it is the midpoint of a concentration-inhibition curve. For the molecule `Cc1c(C)c2c(c(C)c1O)CCC(C)(C(=O)O)O2` (configuration not stated) [TROLOX], the Activity in data set [1] was 24.3%. Besides, the IC50 in [6] was 23.5 µM.

With `CCN(C)C(=O)Oc1cccc(NCc2ccccn2)c1`, the inhibition in data set [4] was found to be 8.51%; in data set [5], 58.9%. Moreover, the Activity in [1] was found to be 7.4%. For the same molecule, the viability at 24 h, 30 µM in [2] came to 91.3%. The viability at 24 h, 100 µM in data set [3] came out at 80.5%.

Consider `CCN(C)C(=O)Oc1cccc(CCNCc2ccccc2O)c1`, for which the inhibition in data set [4] is 3.58%; in data set [5] it was 34.5%. Further, the Activity in data set [1] came to 15.5%.

Consider `CCC(CC)CNc1ccc(O)c(CNc2cccc(OC(=O)N(C)CC)c2)c1`, for which the inhibition amounted to 9.01% in [4] and 64.2% in [5]. The IC50 in data set [6] amounted to 26.5 µM. Moreover, in data set [7], the Activity was 50 nm. The outcome in [8], in data set [9] and in data set [10] was Active. The viability at 24 h, 30 µM in data set [2] was determined as 85.8%. The viability at 24 h, 100 µM in [3] was determined as 25.2%.

In the case of `CCN(C)C(=O)Oc1cccc(NCc2ccccc2O)c1`, the inhibition in [4] is 8.13%; in data set [5] it was 38.5%. Further, the Activity in data set [1] turned out to be 13.8%. Further, the viability at 24 h, 30 µM in data set [2] is 103%. Moreover, in data set [3], the viability at 24 h, 100 µM is 80.3%.

On to `CCN(C)C(=O)Oc1cccc(NC(=O)c2cccnc2O)c1`, for which the figures for the inhibition in data set [4] and in [5] were 1.87% and 73.6%, respectively. In addition, in data set [1], the Activity was determined as 4.18%. Also, the viability at 24 h, 30 µM in [2] stood at 102%. Also, the viability at 24 h, 100 µM in data set [3] is 98.6%.

Consider `CCN(C)C(=O)Oc1cccc(CNC(=O)c2cccnc2O)c1`, for which the inhibition in [4] amounted to 7.59%; in [5], 46.5%. The Activity in data set [1] stood at 2.21%. The viability at 24 h, 30 µM in data set [2] was determined as 101%. The viability at 24 h, 100 µM in data set [3] worked out at 82.5%.

With `CCN(C)C(=O)Oc1cccc([C@H](C)N(C)C)c1`, the inhibition in data set [4] is 2.59%; in [5], 54.7%.

In the case of `CCC(CC)CNc1ccc(O)c(CNCCc2cccc(OC(=O)N(C)CC)c2)c1`, the figures for the inhibition in data set [4] and in data set [5] were 3.36% and 14.2%, respectively. Also, the IC50 in data set [6] worked out at 28.7 µM.
